“Also recorded” adds a separate entry of the source.
Experiments:
[1] = tested on: Ptc-1; test: Quantitative RT-PCR (TaqMan) measurement of Ptc-1 transcript in C3H 10T1/2 cells; assay type: cell-based, Murine; settings: compound concentration of 8 μM
Procedure: (§1) The compounds of FIGS. 32 and 33 were tested for their ability to activate transcription of two well-studied targets of the Hedgehog pathway: the transcription factor Gli-1, and the putative Hedgehog receptor component Ptc-1.
(§2) Murine C3H 10T1/2 cells were seeded at approximately 200,000 cells per well in a 24-well plate in complete medium (10% FBS). After 24 hr, medium was removed and replaced with “starvation” medium (0.5% FBS) containing dilutions of compound or Hh protein. After 16-18 hr, total RNA was prepared using TriZol (Life Technologies, inc.).
(§3) One microgram aliquots of total RNA were used to prepare random hexamer-primed cDNA with […] Reverse transcriptase (Life Technologies, Inc.).
(§4) To measure the relative levels of Gli-1 and Ptc-1 transcripts, TaqMan assays (PE Biosystems) were performed with an ABI Prism 7700 Sequence Detection System. As an internal control, GAPDH transcript levels were simultaneously measured in each reaction. Data were analyzed using Sequence Detector v1.6.3 (Perkin Elmer).

[2] = tested on: Gli-1; test: Quantitative RT-PCR (TaqMan) measurement of Gli-1 transcript in C3H 10T1/2 cells; assay type: cell-based, Murine; settings: compound concentration of 8 μM
Procedure: as §1, §2, §3, §4

[3] = tested on: cerebellar neuron precursors; test: Cerebellar neuron precursor proliferation (3H-thymidine incorporation); assay type: cell-based, rat; settings: in the absence of Hh protein treatment
Procedure: In order to test the efficacy of Hedgehog signaling agonists, the ability of the agonists to stimulate the proliferation of cerebellar neuron precursors was determined. Cerebellar granule neuron precursors are known to respond to Hh protein by proliferating. To test the agonists, cerebellar neurons were dissected out of postnatal (one week) rat brains, and placed into primary cell culture. Treatment agents were added once, on the first day of culture (0 DIV). Cells were left in culture until 2 DIV, when 3H-thymidine was added for 5 hours; the amount of incorporation by the cells of this 3H-thymidine provides a measure of the level of proliferation of the cells. Cells were then lysed, and the incorporation of 3H-thymidine was determined. The positive control was Hh protein, at 1.0 μg/ml final concentration. Hh protein alone caused approximately a 20-fold increase in 3H-thymidine incorporation, consistent with the known ability of Shh to stimulate proliferation of these cells. Non-Hh-protein-stimulated cells, including cells treated with control vehicle (DMSO), had very low levels of proliferation. […] At 5.0 μM, the p-cyanophenyl compound B caused 10.2-fold induction of 3H-thymidine incorporation. […] At 1.0, 0.3, or 0.1 μM, D caused 16-, 17-, or 13-fold induction, respectively, of 3H thymidine incorporation into the cells.

[4] = tested on: ptc-1 (d11) lacZ lungs; test: Lung branching assay (ptc-1 lacZ lung explants); assay type: cell-based, mouse; settings: 5 μM, 48 hrs culture
Procedure: (§5) E 12.5 old ptc-1 (d11) lacZ lungs were harvested and transgenic embryos identified by lacZ detection using tails. Explants were assembled on 1 μm polycarbonate filters (Costar) placed on top of plastic grids (histology embedding chamber) and placed in standard 12-well tissue culture plates filled with lung explant culture medium (DMEM based, additives optimized for the culture of mouse lungs) for 48 hrs, fixed in lacZ fixative, rinsed and stained for lacZ O/N at 37° C.
Results are depicted in FIG. 44. In the control panel on the left, LacZ expression can be observed in the mesenchyme immediately adjacent to distal branching tips, a pattern reflective of endogenous patched expression.

[5] = tested on: patched (ptc-lacZ β-galactosidase reporter); test: Reporter mice assay (ptc-lacZ mice, X-gal staining of tissues); assay type: in vivo, mouse
Procedure: Mice with a β-galactosidase transgene (ptc-lacZ mice) under the regulatory control of the patched locus expresss the β-galactosidase protein in the same cells where the endogenous mouse patched gene is expressed. The β-galactosidase protein can thus be used as a faithful reporter of the expression of the endogenous patched gene.
Ptc-lacZ mice were divided into four treatment groups and were treated with the following compounds or combinations of compounds for four days, beginning on the first day after birth (dipal-Shh=dipalmitoylated Sonic hedgehog):
The vehicle for the agonist was 10% DMSO in PBS (pH 7.2). The agonist was injected from a 4.67 mM stock dissolved in the vehicle solution.
18 hours following the last injections, the mice were sacrificed and the following tissues were collected: skull, kidney, lung, scapula, skin and heart. All tissues were fixed in 0.2% glutaraldehyde, 5 mM EDTA (pH 8.0), 20 mM MgCl2, 100 mM Na2HPO4 for 30 minutes before staining in 1 mg/ml X-gal, 12.5 mM potassium ferrocyanide, 12.5 mM potassium ferricyanide, 2 mM MgCl2, 0.01% deoxycholate, 0.02% NP-40, and 100 mM Na2HPO4 for 30 hours. Tissues were judged for relative intensity and photographed.
FIG. 42: Ptc-lacZ mice were divided into two treatment groups and were treated with the following compounds for three days, beginning on the first day after birth:
The vehicle for the agonist was 10% DMSO in PBS (pH 7.2). The agonist was injected from a 1.0 mM stock dissolved in the vehicle solution.
Eighteen hours following the last injections, the mice were sacrificed and the forelimbs were collected and processed as described above.
In a third experiment, Ptc-lacZ mice were divided into five treatment groups and were treated with the following compounds for four days, beginning on the first day after birth:
The vehicle for the agonist was 10% DMSO in PBS (pH 7.2). The agonist was injected from stocks of 0.3, 0.1 and 0.03 mM dissolved in the vehicle solution.
Eighteen hours following the last injections, the mice were sacrificed and the forelimbs were collected and processed as described above. Results of this experiment are depicted in FIG. 43, in which the vehicle control is not shown.

[6] = tested on: ptc-1 (d11) lacZ kidney explants; test: Kidney branching assay (ptc-1 lacZ kidney explants); assay type: cell-based, mouse; settings: 5 μM, 48 hrs culture
Procedure: as §5, with “E13.5 old” for “E 12.5 old”, “with kidney” for “with lung”
Results are depicted in FIG. 45. In the control panel on the left, LacZ expression can be observed in the mesenchyme immediately adjacent to proximalmost ureteric epitheilium, a pattern reflective of endogenous patched expression.

[7] = tested on: human embryonic palatal mesenchyme (HEPM) cells with a Gli-Luc construct; test: Gli-Luc reporter assay in human reporter cells; assay type: cell-based
Excerpt: FIGS. 47A and B compare the activity of subject compounds O and R in mouse reporter cells (TM3 cells with a Gli-Luc reporter construct, as described above) and in human reporter cells (human embryonic palatal mesenchyme (HEPM) cells with a Gli-Luc construct).

[8] = tested on: ptc-lacZ skin punches; test: Skin explants from ptc-lacZ pups (X-Gal stain); assay type: cell-based, mouse; settings: agonist and a low dose of Hh protein, cultured 6 days
Procedure: Skin from ptc-lacZ E17.5 pups was excised with a 2 mm skin punch. Those skin punches were then cultured for 6 days in control media, or media including either agonist B or D or Hh protein, or media including both an agonist and Hh protein. The explants were then stained with X-Gal stain.

In the case of `COc1ccc(CN(C(=O)c2sc3ccccc3c2Cl)C2CCC(N)CC2)cc1-c1cccc([N+](=O)[O-])c1` (centres unmarked) [A], the “induction of Ptc-1 relative to that obtained with the optimal concentration of Hh protein” value [1] is reported as roughly 40%, the “induction of Gli-1 relative to that obtained with the optimal concentration of Hh protein” value [2] is reported as roughly 40% and the “stimulation of 3H-thymidine incorporation” value (shortened to “stimulation”) [3] is reported as “significantly stimulate 3H-thymidine incorporation”.
For `COc1ccc(CN(C(=O)c2sc3ccccc3c2Cl)C2CCC(N)CC2)cc1-c1ccc(C#N)cc1` (centres unmarked) [B], the “LacZ reporter gene expression in lung explants” value [4] was “significantly increased reporter gene expression and expansion of the expression domain of the transgene”, the “upregulation of β-galactosidase (hedgehog pathway) in tissues” value ([5]; 15 mg/kg/injection 4X/day plus dipal-Shh 1 mg/kg/injection 2X/day, four days from first day after birth, skull, kidney, lung, scapula, skin, heart) was “clearly capable of upregulating the hedgehog pathway in vivo” and the “induction of Ptc-1 relative to that obtained with the optimal concentration of Hh protein” value [1] was “approximately 60%”. The “LacZ reporter gene expression in kidney explants” value [6] was “significantly increased reporter gene expression and expansion of the expression domain of the transgene”, the “induction of Gli-1 relative to that obtained with the optimal concentration of Hh protein” value [2] was “approximately 60%” and the “stimulation” value [3] was “significantly stimulate 3H-thymidine incorporation”.
`CNC1CCC(N(Cc2ccc(-c3cccnc3)o2)C(=O)c2sc3ccccc3c2Cl)CC1` (centres unmarked) [R] was tested, and the “activation of Gli-Luc reporter in human cells” value [7] was “activation of the reporter cell line”.
`CNC1CCC(N(Cc2ccc(OC)c(-c3ccc(C#N)cc3)c2)C(=O)c2sc3ccccc3c2Cl)CC1` (centres unmarked) [D] was tested, and the “upregulation of hedgehog pathway (β-galactosidase) in forelimbs” value (“upregulation of hedgehog pathway” for short) ([5]; 0.1 mg/kg/injection 4X/day, four days) was “very weak upregulation”, the “upregulation of hedgehog pathway” value ([5]; 0.3 mg/kg/injection 4X/day, four days) was “greater than that seen with injections of Hh protein” and the “upregulation of hedgehog pathway” value ([5]; 0.9 mg/kg/injection 4X/day, four days, listed as agonist D) was “highest levels of upregulation; also recorded: greater than that seen with injections of Hh protein”. The “upregulation of hedgehog pathway” value ([5]; 4 mg/kg/injection 4X/day, three days, absence of dipal-Shh, listed as Agonist D) was “clearly capable of upregulating the hedgehog pathway in vivo”, the “upregulation of hedgehog pathway” value ([5]; 4 mg/kg/injection 4X/day, three days, absence of dipal-Shh, listed as agonist D) was “greater than that seen with injections of dipal-Shh” and the “stimulation” value [3] was “strongly stimulated 3H-thymidine incorporation”. The “X-Gal staining of skin explants” value [8] was “Analogous results”.
